pIC50: −log10 of the molar value.
Experiments:
[1] = target: Neuraminidase (Influenza A virus (A/Memphis/1/1971(H3N2)), UniProt P03471, E119V); design: species or system Influenza A virus (A/Fukui/45/2004(H3N2))
[2] = target: Neuraminidase (Influenza A virus (A/Memphis/1/1971(H3N2)), UniProt P03471, E119V); design: species or system Influenza A virus (A/Fukui/45/2004(H3N2)); remark: listed apart in the source

| Structure (SMILES) | pIC50 [1] | pIC50 [2] |
| --- | --- | --- |
| CC(=O)N[C@@H]1[C@@H](O)[C@@H](F)[C@](F)(C(=O)O)O[C@H]1[C@H](O)CCO | 4.60 | 5.36 |
| CC(=O)N[C@@H]1C[C@@H](F)[C@](F)(C(=O)O)O[C@H]1[C@H](O)[C@H](O)CO | 5.43 | 5.43 |
